Experimental data as given in patent US20220372014A1, “NEUROPROTECTIVE COMPOUNDS AND METHODS OF USE THEREOF” (The Johns Hopkins University, priority 2019, published 2022).

What was measured:
PAAN/MIF = assay: In vitro PAAN/MIF nuclease assay (PS30 or RF substrate, PAGE gel, noncleaved substrate DNA); assay type: biochemical, human
Method: Nuclease assay. Purified PAAN/MIF protein (4 μM) was incubated with compounds (10 μM) in the nuclease buffer [10 mM Tris-C1 (pH 7.0) and 10 mM MgCl2] for 20 m on ice. Then samples were added with 1 μM of PAAN/MIF substrate (PS30 or RF) and incubated for 1 h at 37° C. The reaction was terminated with loading buffer containing 10 mM EDTA and separated on 15% TBE-urea polyacrylamide (PAGE) gel or 20% TBE PAGE gel.
(§1) Purification of PAAN/MIF recombinant proteins. Human PAAN/MIF (NM_002415) cDNA and its variants were subcloned into pGEX-6β-1 vector (GE Healthcare) and mutants were generated using a QuikChange site-directed mutagenesis kit (Stratagene). The sequences were confirmed by automated DNA sequencing. The protein was expressed and purified from Escherichia coli by glutathione sepharose (GE Healthcare). The GST tag was subsequently proteolytically removed. GST protein was used as a negative control in the nuclease assay and PAAN/MIF proteins purified by FPLC using Superdex 200 10/300GL column (GE Healthcare, Life Sciences) were also used in the nuclease assays.

calcineurin = assay: Calcineurin cellular activity assay in SH-SY5Y cells; assay type: cell-based; settings: 1 μM, 6 h
Method: Calcineurin activity assay. Calcineurin activity was measured using a calcineurin cellular activity assay (Enzo Life Sciences) according to manufacturer's protocols. See Sangadala et al. (2019) Int. J. Mol. Sci. 20:1900. SH-SY5Y cells treated with FK506 or compound 121 were placed in a desalting column to remove excess phosphates and nucleotides. Total phosphate activity was determined in the samples by incubating with a calcineurin-specific substrate supplied in the manufacturer and measured by monitoring absorbance at 620 nm. Calcineurin activity was calculated as the difference between total phosphatase activity minus the phosphatase activity in the presence of 10 mM EGTA that blocks calcineurin activity.

DNA-MIF/PAAN complex = target: T1, DNA-MIF/PAAN complex (Homo sapiens, UniProt P14174); assay: Electrophoretic mobility shift assay (EMSA) of PAAN/MIF with biotin-labeled DNA substrate (PS30); assay type: binding; settings: 1-100 μM
T1 construct: GST (N, cleaved yes); made in house; host or cells: Escherichia coli
T1 sequence (P14174 whole entry, one chain of several): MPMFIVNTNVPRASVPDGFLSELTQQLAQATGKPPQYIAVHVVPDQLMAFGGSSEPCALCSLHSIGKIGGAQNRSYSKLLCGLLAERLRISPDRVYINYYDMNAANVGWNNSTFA
Method: Electrophoretic mobility shift assay (EMSA). EMSA assays were performed using the Light-Shift Chemiluminescent EMSA kit (Thermo Scientific) following the manufactures instruction. Recombinant PAAN/MIF protein (2 μM) was incubated with 1-100 μM PAANIB-1 as indicated in the binding buffer containing 10 mM MgCl2 for 10 min and further incubated with biotin-labeled DNA substrates (10 nM) for 30 min on ice. The mixture were separated on 6% retardation polyacrylamide and transferred to a Nylon membrane. Immunoblot analysis was performed to detect the biotin-labeled DNA using the Chemiluminescent Nucleic Acid Detection Module (Thermo Scientific).

[1] = tested on: α-syn PFF injected WT mice; assay: Intrastriatal α-syn PFF mouse model (TH/Nissl stereology, HPLC of dopamine and DOPAC, pole test, grip strength test, pulsed-field gel, weight)
PAAN/MIF WT or variants = target: T2, PAAN/MIF WT or variants (Homo sapiens, UniProt P14174); assay: Biolayer interferometry (ForteBio Octet) binding assay; settings: PAAN/MIF WT
T2 construct: made in house; host or cells: Escherichia coli
Source text: as §1
Biolayer interferometry assay. The dose-dependent binding of compound 121 for PAAN/MIF WT or PAAN/MIF variants were determined by a biolayer interferometry assay using Octet RED96 (ForteBio). See Guo et al. (2018) Nat. Chem. 11:254-63. All the proteins used in this assay were tagged with GST. Anti-GST biosensor tips (ForteBio) were used to immobilize the GST proteins after prewetting with 1X kinetic buffer (ForteBio). The equilibrated GST biosensors were loaded with PAAN/MIF WT or variants (25 μg/ml). Background binding controls were measured by sensors that were incubated in buffer without proteins. All assays were performed by a standard protocol in 96-well black plates (Greiner Bio) with a total volume of 200 μl per well. All the data were analyzed by Octet data analysis software.

human cortical neurons [2] = assay: α-syn PFF-induced cell death in human cortical neurons (Hoechst and PI staining); assay type: cell-based; settings: pre-incubated 1 h, α-syn PFF 14 days
Method: (§2) Preparation of human cortical neurons. Human H1 embryonic stem cells (ESCs) were differentiated into cortical neurons as previously described. See Xu et al. (2016) Sci. Transl. Med. 8:333ra48. Briefly, ESC colonies detached from mouse embryonic fibroblasts (MEFs) were grown in suspension in human ESC medium without FGF2 for 6 days in low-attachment six-well plates (Corning). On day 7, free-floating embyroid bodies (EB)s were transferred to Matrigel coated plates to allow the complete attachment of EB and formation of rosette neuronal aggregates (RONAs). RONAs were manually microisolated and maintained as neurospheres for 1 day and then dissociated into single cells and plated on laminin/poly-D-lysine-coated plates for further experiments. […]
Cell death and viability assessment. Primary cultured cortical neurons were treated with 5 μg/ml of α-syn PFF for 14 days and cell death was determined by staining of all nuclei with 7 μM Hoechst 33342 and dead cell nuclei with 2 μM propidium iodide (PI) (Invitrogen). The numbers of total and dead cells were counted with the Axiovision 4.6 software (Carl Zeiss). Cell viability was determined by fluorescence at an excitation wavelength 570 nm and an emission wavelength 585 nm using Alamar Blue (Invitrogen).

human cortical neurons [3] = assay: Pulsed-field gel electrophoresis of α-syn PFF-induced DNA damage in human cortical neurons; assay type: cell-based
Method: Preparation and quantification of genomic DNA. The striatum was rapidly removed from the brain and lysed by repetitive pipetting with a micropipette in lysis buffer [100 mM NaCl, 10 mM Tris-HCl (pH 8.0), 25 mM EDTA (pH 8.0), 0.5% SDS] with 0.2 mg/ml proteinase K (Roche Diagnotics). Samples were incubated 55° C. for overnight and further incubated 85° C. for 45 m to inactivate proteinase K. The genomic DNA were immediately separated on a 1.2% pulse field certified agarose in 0.5×TBE buffer with initial switch time of 1.5 s and a final switch time of 3.5 s for 12 h at 6 V/cm. The gel was then stained with […] Ethidium Bromide (EtBr) and visualized on UV light. Noncleaved genomic DNA was quantified as percentage (%) of the total genomic DNA that included both noncleaved genomic DNA and cleaved genomic DNA in each individual group.
as §2, with “(RONAs).” for “(RONAs). RONAs were manually microisolated and maintained as neurospheres for 1 day and then dissociated into single cells and plated on laminin/poly-D-lysine-coated plates for further experiments.”

[4] = both doses, 5 and 15 mg/kg/day oral, 5 months

For `COc1ccc(CC[C@H]2OC(=O)[C@@H]3CCCCN3C(=O)C(=O)C(C)(C)COC(=O)C=CCCN(C)C(=O)[C@@H]3CCCN3C(=O)[C@H](COC(C)(C)C)N(C)C(=O)C(c3ccccc3)NC(=O)[C@H](C)N(C)C(=O)COc3cc(F)cc2c3)cc1OC` (mixture of isomers) [compound 121], the “nuclease activity of MIF 66-67A or MIF 97-99A mutants” value (PAAN/MIF; mutants K66A and I67A, N97A, Y98A and Y99A) was “remained sensitive to inhibition”, the “nuclease activity of PAAN/MIF 60-63A and PAAN/MIF N72A mutants” value (PAAN/MIF; mutants S60A, L61A, H62A and S63A (MIF 60-63A), N72A) was “became resistant” and the “FK506 sensitive calcineurin activity” value (calcineurin) was “failed to inhibit”. For the same molecule, the “interaction of PAAN/MIF with its substrate” value (DNA-MIF/PAAN complex) was “does not disrupt”, the “tolerability (toxicity, weight)” value ([1]; 5 and 15 mg/kg/day oral, 5 months) was “no overt toxicity or weight loss” and the “behavioral deficits (pole test, grip strength test)” value [1, 4] was “prevents”. The “loss of DA neurons (TH and Nissl stereology, TH immunoblot, HPLC of DA and DOPAC)” value [1, 4] was “prevents the loss of DA neurons”, the “α-syn PFF-induced large scale genomic DNA cleavage in vivo” value ([1]; pulse gel electrophoresis) was “significantly attenuated” and the “Kd, binding affinity of PAAN/MIF” value (PAAN/MIF WT or variants) was 1.56 µM.
In the case of `COc1ccc(CC[C@H]2OC(=O)[C@@H]3CCCCN3C(=O)C(=O)C(C)(C)COC(=O)C=CCCN(C)C(=O)[C@@H]3CCCN3C(=O)[C@H](COC(C)(C)C)N(C)C(=O)C(c3ccccc3)NC(=O)[C@H](C)N(C)C(=O)COc3cccc2c3)cc1OC` (some centres unmarked) [compound 56], the “cell death in human cortical neurons treated with human α-syn PFF” value (human cortical neurons [2]) was “protected against cell death similar to ABT-888” and the “genomic DNA cleavage in human cortical neurons treated with human α-syn PFF” value (human cortical neurons [3]) was “prevented genomic DNA cleavage”.
For `COc1ccc(CC[C@H]2OC(=O)[C@@H]3CCCCN3C(=O)C(=O)C(C)(C)COC(=O)C=CCCN(C)C(=O)[C@H](C)NC(=O)[C@H](C(C)C)N(C)C(=O)[C@@H](Cc3ccccc3)NC(=O)[C@H](CC(C)C)N(C)C(=O)CCC(=O)Nc3cccc2c3)cc1OC` [compound 77], the “cell death in human cortical neurons treated with human α-syn PFF” value (human cortical neurons [2]) was “protected against cell death similar to ABT-888” and the “genomic DNA cleavage in human cortical neurons treated with human α-syn PFF” value (human cortical neurons [3]) was “prevented genomic DNA cleavage”.
For `COc1ccc(CC[C@H]2OC(=O)[C@@H]3CCCCN3C(=O)C(=O)C(C)(C)COC(=O)C=CCCN(C)C(=O)[C@@H]3CCCN3C(=O)[C@H](CO)N(C)C(=O)C(c3ccccc3)NC(=O)[C@H](C)N(C)C(=O)COc3cccc2c3)cc1OC` (some centres unmarked) [compound 97], the “binding to PAAN/MIF” value (PAAN/MIF WT or variants) was “lack of binding”.
